Reference: US6830761B1, “Composition comprising micro-encapsulated iron” (Ped-Med Ltd., priority 1998, dated 2004)

Tested on: anemic rats
Assay: hemoglobin-repletion test in anemic rats (relative bioavailability of iron)
Format: in vivo, Sprague-Dawley rats
Conditions: high iron diet, 20 mg/kg of diet, after 14 days of feeding
Protocol: Male weanling Sprague-Dawley rats housed individually in stainless steel cages were fed a low-iron diet and de-ionized distilled water ad lib for 24 days. The low-iron diet contained no more than about 3 mg of iron per kg of diet. Following the 24 day depletion period, approximately 200 μl of blood was drawn from the tail vein of each rat for hemoglobin analysis. Anemic rats having hemoglobin values between 30 and 60 g/L were used in the study. The rats were housed individually in cages in a randomized block design.

## ferrous sulfate
  mean hemoglobin response: 31 g/L
